Experiments:
[1] = tested on: HeLa cells; assay: Morphological analysis, rapid panoptic staining; format: cell-based, human; settings: 72 h, at IC50 and 2 × IC50
Procedure: Following the screening of IC50 values and SI in solid tumor cells, indications of potential cell death were explored in the most sensitive cell line. The morphological changes were evaluated according to protocols previously published with modifications. Thus, HeLa cells were seeded in 12-well plates at a concentration of 4 × 10^5 cells/mL and incubated overnight for adhesion. […] After the treatment period, the medium was aspirated, and the plate was washed twice with PBS. The cells were fixed and stained using the Panoptic Rapid Kit following the manufacturer’s protocol. Morphological analyses were conducted to observe cellular alterations indicative of cell death, including cellular volume reduction, membrane integrity, karyolysis, pyknosis, karyorrhexis, apoptotic bodies, vacuoles, and cellular debris.

[2] = tested on: peripheral blood erythrocytes from Swiss mice; assay: Alkaline comet assay in vivo; set-up: species or system Mus musculus; settings: for damage index (comet assay) compared to negative control / damage frequency (comet assay) compared to negative control: intraperitoneally
Procedure: (§1) Forty female Mus musculus mice (Swiss strain) were used. The animals were divided into 8 groups, with 5 animals each: G1—negative control (NC) treated with the vehicle solution intraperitoneally; G2—positive control (PC) treated intraperitoneally with cyclophosphamide at a dose of 30 mg/kg; groups exposed to the BV3 derivative—Group BV3—I intraperitoneally at doses of 2000 mg/kg; Group BV3—II 1000 mg/kg; Group BV3—III 500 mg/kg; and groups exposed to BV5—Group BV5—I, received BV5 intraperitoneally at doses of 2000 mg/kg; Group BV5—II 1000 mg/kg; and Group BV5—III 500 mg/kg. For the comet assay, approximately 0.5 mL of blood from each animal was collected via the tail vein 6–8 h after administration of the compounds. For the micronucleus test, 1 mL of blood from each animal was collected by cardiac puncture 48 h after administration of the compounds. For that collection, the mice were anesthetized with ketamine (100 mg/kg) and xylazine (10 mg/kg), intraperitoneally. Immediately after blood collection, the animals were euthanized with high doses of anesthetics (ketamine 300 mg/kg and xylazine 30 mg/kg). The in vivo experiments were approved by the Ethics Committee on the Use of Animals (CEUA) of the Federal University of Pernambuco, under process no. 004/2023.
The female mice (n = 40) were equally distributed into 8 experimental groups; the groups were composed of 5 female animals each. After administering the solutions and compounds to the groups, blood samples were taken 6 and 8 h after treatment. Subsequently, 15 µL of blood was used, which was homogenized with 100 µL of low-melting-point agarose (LM agarose) and subsequently deposited on slides previously prepared with standard agarose. The slides were covered with coverslips and left at 4 °C for 10 min. After refrigeration, the coverslips were removed and the slides were placed in a lysis solution (2.5 M NaCl, 100 mM EDTA, 10 mM tris, 1% Triton x-100, 10% DMSO, pH 13) for 48 h. After lysis, the slides were left in an alkaline electrophoresis buffer ([…] and […] EDTA disodium salt, pH 13) for 20 min to unroll the DNA and then subjected to electrophoresis in a horizontal vat for 20 min, with a current of ± 300 mA and potential difference of 32 V. After electrophoresis, the slides were neutralized for 15 min in 0.4 M tris-HCl buffer, pH 7.5, and fixed for 5 min in absolute ethanol. The slides were stained with 100 µL of a 1 µg/mL acridine orange solution. All test steps were carried out under red light. To analyze damage levels, 100 nucleoids from each animal were evaluated for damage level. For this, each nucleoid was classified into one of five classes according to the proportion of DNA in the comet’s tail and head: 0 (no damage); 1 (little apparent damage); 2 (medium damage); 3 (medium damage with longer tail); and 4 (maximum damage). The Damage Index (DI) was thus calculated according to the formula DI=0×nºclass comets 0+1×nºclass comets 1+2×nºclass comets 2+3×nºclass comets 3+4×(nºclass comets 4)
Thus, the values obtained could range from 0 (no damage) to 400 (maximum damage). Additionally, the Frequency of damage (FD) was calculated based on the percentage of all nucleoids with some damage (class 1 to class 4) relative to the total number of nucleoids counted per animal: FD=nºofdamaged comets−nºclass comets 0×100/(nºtotal)

[3] = set-up: method as in PMID 35934135; settings: cited from earlier work; for toxicity category, Globally Harmonized System of Classification and Labelling of Chemicals: acute toxicity; for deaths in acute toxicity experiments: dose of 2000 mg/kg
[4] = tested on: polychromatic erythrocytes (PCE) from Swiss mice; assay: Micronucleus assay in vivo; set-up: species or system Mus musculus; settings: intraperitoneally, 500, 1000 and 2000 mg/kg, blood 48 h after administration
Procedure: as §1, with “Immediately after blood collection, the animals were euthanized with high doses of anesthetics (ketamine 300 mg/kg and xylazine 30 mg/kg). The in vivo experiments were approved by the Ethics Committee on the Use of Animals (CEUA) of the Federal University of Pernambuco, under process no. 004/2023.” left out
The same mice from the comet test (females n = 40) were used, equally with the 8 experimental groups mentioned above. […] Two slides were prepared per animal, in which 2000 polychromatic erythrocytes (PCE) were analyzed for the presence of micronuclei. The analysis was carried out using a Zeiss Axio Imager M2 fluorescence microscope, with a 40× objective and Alexa Fluor 488 filter (Carl Zeiss AG™, Germany).

SMILES | morphological changes [1] | frequency of damage (comet assay) ([2]; any of the tested doses (500, 1000, 2000 mg/kg)) | damage index (comet assay) compared to negative control ([2]; 2000 mg/kg) | damage index (comet assay) compared to negative control ([2]; 500 and 1000 mg/kg) | toxicity category, Globally Harmonized System of Classification and Labelling of Chemicals [3] | deaths in acute toxicity experiments [3] | number of micronuclei compared to negative control [4] | damage frequency (comet assay) compared to negative control ([2]; 2000 mg/kg) | damage frequency (comet assay) compared to negative control ([2]; 500 and 1000 mg/kg)
Cc1ccc(NC(=S)N/N=C2\C(=O)C3=C(OC(C)(C)CC3)c3ccccc32)cc1 [BV5, 2-(2,2-dimethyl-5-oxo-3,4-dihydro-2H-benzo[h]chromen-6(5H)-ylidene)-N-(p-tolyl)-thiocarbohydrazide] | loss of membrane integrity, reduced cellular volume, presence of fragmented/pyknotic nuclei, chromatin condensation, and cellular debris | no difference | increase | no differences | Category 5 | no deaths | no differences |  | 
CC1(C)CCC2=C(O1)c1ccccc1/C(=N/NC(=S)Nc1ccc([N+](=O)[O-])cc1)C2=O [BV3, 2-(2,2-dimethyl-5-oxo-3,4-dihydro-2H-benzo[h]chromen-6(5H)-ylidene)-N-(4nitrophen-yl)thio-carbohydrazide] | reduced cellular volume, cells with condensed chromatin, and cellular debris |  | decrease | no significant differences | Category 5 | no deaths | no differences | decrease | no significant differences
